Method: This example provides an LC-MS/MS method for the determination of ketamine and norketamine in sodium heparin human plasma using ketamine-d4 and norketamine-d4 as the respective internal standards (IS).
Retention time and peak area were determined by Analyst® Data Acquisition/Processing Software (Version 1.4.2). Analyte concentrations were obtained from a calibration curve constructed by plotting the peak area ratio versus the concentration using Watson LIMS (Version 7.3). Watson LIMS and Microsoft Office Excel were used for statistical calculations. When Office Excel was used the calculations were 100% audited. Concentrations were calculated using linear regression according to the following equation: […]
Selectivity is defined as the ability of a chromatographic method to measure a response from the analyte without interference from the biological matrix. This was accomplished by evaluating six individual lots of human plasma prepared as blank and at the lower limit of quantitation (LLOQ, 0.500 ng/mL).
The matrix effect is defined as the suppression or enhancement of ionization of analytes by the presence of matrix components in the biological samples. See, e.g., C. T. Viswanathan, “Quantitative Bioanalytical Methods Validation and Implementation: Best Practices for Chromatographic and Ligand Binding Assays,” Pharmaceutical Research, Vol. 24, No. 10, October 2007, p. 1969. The matrix effect was evaluated by extracting single replicates of six lots of blank human plasma and spiking each lot at the Low and High QC concentration levels (1.50 ng/mL and 375 ng/mL) post extraction. The area ratios of the six lots of post-extraction spiked plasma samples were compared to the mean area ratio obtained from three replicates of the neat solution prepared at the same concentration level in purified water.
The linearity of the method was evaluated at a linear range of 0.500/0.500-500/500 ng/mL for ketamine/norketamine in human plasma. Linear regression (with a weighting factor of 1/x2) was used to produce the best fit for the concentration-detector response relationship for ketamine and norketamine in human plasma.
The validation was conducted with a target LLOQ of 0.500 ng/mL for ketamine and norketamine in human plasma. To evaluate the sensitivity, six QC samples prepared at the LLOQ were analyzed during three individual batch runs as part of the intra-run and inter-run accuracy and precision for the method. The concentrations were calculated with the calibration curve.
The intra-run and inter-run accuracy and precision of the method were investigated at four different QC concentration levels (0.500 ng/mL (LLOQ), 1.50 ng/mL, 80.0 ng/mL, and 375 ng/mL).
Recoveries were calculated according to the following formula: […]
To assess the reinjection reproducibility, an analyte batch containing a standard curve and QC samples was reinjected after being kept at room temperature for 161.5 hours.

CN[C@]1(c2ccccc2Cl)CCCCC1=O [esketamine, (S)-2-(2-chlorophenyl)-2-(methylamino)cyclohexanone]
QC sample freeze/thaw stability (freeze (−20° C.)/thaw (room temperature)): 3 freeze (−20° C.)/thaw (room temperature) cycles
QC sample long-term storage stability (human plasma QC sample at −20° C.): 707 days at −20 °C
QC sample bench-top stability (human plasma QC sample, room temperature): 18 hours at room temperature
